Literature values as cited in patent publication US20130064803A1, “BIO-REPLENISHMENT (BioRep) FOR COGNITIVE HEALTH” (Naidu LP, priority 2011, published 2013).

Tests used:
[1] = in vivo

SMILES	share of an oral dose ending up in the bloodstream	first-pass, share metabolized in the liver [1]
N[C@@H](Cc1c[nH]c2ccc(O)cc12)C(=O)O [5-HTP, 5-hydroxy-tryptophan]	about 70%	
C[S+](CC[C@H](N)C(=O)O)C[C@H]1O[C@@H](n2cnc3c(N)ncnc32)[C@H](O)[C@@H]1O (some centres unmarked) [SAMe, S-adenosylmethionine]		approximately 50%
